“And” between values parts separate entries of the source, which are not always exact repeats. Identical values can stand only once. “Also recorded” adds a separate entry of the source.
What was measured:
[1] = test system: seizures; experiment: Rodent seizure model, general statements on anti-convulsant activity; conditions: in vivo
Source text: The examples provided herein involve an rodent seizure model that is recognized as a good model of human epilepsy and convulsions disorders.

[2] = test system: kainic acid-induced seizures; experiment: Effect of ibuprofen on kainic acid-induced EEG seizures (Example 5); type: in vivo, Rats; conditions: for Status Epilepticus (time in status epilepticus) / Onset / No. of Seizures / Time in Seizures: 50 mg/kg
Protocol: EEG seizures were induced in adult male Sprague-Dawley rats by intrahippocampal injection of 40 ng kainic acid (KA) using a chronically-implanted cannula. EEG seizures were recorded using chronically-implanted hippocampal electrodes. Ictal and interictal epileptic activity was quantified quantified by EEG analysis based on the following parameters: 1) the time to onset of the first ictal episode, 2) the number of ictal episodes during the 3 hours of recording, and 3) the time spent in ictal activity reckoned by adding together the duration of each ictal event. Compound 2 or its vehicle were injected intraperitoneally for 3 consecutive days (50-200 mg/kg). The 4th day, rats received compound 2, 45 and 10 min before the intrahippocampal injection of 40 ng in 0.5 μl kainic acid.
The effect of ibuprofen on seizures was also examined using the methods described in Example 4. Rats received ibuprofen (50 mg/kg, i.p.) 60 min. before unilateral intrahippocampal injection of […] in 0.5 μl kainic acid. Controls (vehicle) received saline *p<0.05 vs. vehicle by Student's t-test. Seizures were analyzed and quantified by EEG. Status epilepticus represents continuous seizure activity lasting more than 30 min. consecutively.

[3] = test system: IL-1β; experiment: Western blot of IL-1β in hippocampal homogenates after kainate seizures; type: in vivo, rats; conditions: 25 μg/4 μL icv 45 and 10 min before kainic acid 40 ng, 90 min after seizures
Source text: See Example 1 and Example 6.

[4] = test system: kainic acid-induced seizures; experiment: Kainic acid-induced EEG seizures, compound given intracerebroventricularly (Example 1); type: in vivo, male adult Sprague-Dawley rats; conditions: individual rats, 25 μg/4 μl icv
Protocol: An experimental model of seizures in male adult Sprague-Dawley rats was induced by unilateral microinjection of kainic acid (40 ng in 0.5 μl) in the dorsal hippocampus of freely-moving rats using chronically-implanted cannulae and electrodes. Briefly, animals were deeply anesthetized using Equithesin (1% […] and 4% chloral hydrate; 3 ml/kg, i.p.). Bipolar nichrome wire insulated electrodes (60 μm) were implanted bilaterally into the dentate gyrus of the dorsal hippocampus (septal pole), and a guide cannula (22 gauge) was unilaterally positioned on top of the dura and glued to one of the depth electrodes for the intrahippocampal injection of kainic acid. The coordinates from bregma for implantation of the hippocampal electrodes were (in mm: nose bar -2.5, AP -3.5, L ±2.4 and 3 below dura mater). An additional guide cannula was unilaterally positioned on top of the dura mater for intracerebroventricular injection of compounds (in mm, nose bar -2.5; AP -1; L +1.5). A ground lead was positioned over the nasal sinus and two screw electrodes were placed bilaterally over the parietal cortex. The electrodes were connected to a multipin socket (March Electronics, NY) and, together with the injection cannula, were secured to the skull by acrylic dental cement.

[5] = test system: kainic acid-induced seizures; experiment: Kainic acid-induced EEG seizures, compound 1 given intraperitoneally (Example 2); type: in vivo, rats
Protocol: An experimental model of seizures in rats was induced by unilateral microinjection of kainic acid (40 ng in 0.5 μL) in the dorsal hippocampus of freely-moving rats using chronically-implanted cannulae. […] EEG seizures were recorded using chronically-implanted hippocampal electrodes. […] See, Example 4, where a higher dose of compound 2 produced statistically significant effects.

[6] = test system: rheumatoid arthritis; conditions: Pavelka et al. 2002, 285 patient PHII trial; cited from earlier work
[7] = individual rats, i.p. 60 min. before kainic acid
[8] = individual rats, 30 mg/kg intraperitoneally, 45 and 10 min before 40 ng kainic acid, 30 mg/kg

O=C1NC(=O)C(c2ccccc2)(c2ccccc2)N1 [phenytoin]
anti-convulsant activity in the rodent seizure model [1]: exhibit anti-convulsant activity

CC(C)Cc1ccc(C(C)C(=O)O)cc1 (stereo not shown) [Ibuprofen]
Status Epilepticus (time in status epilepticus) ([2]; Mean ± SE of (5) rats, i.p., vehicle —): 74.4 ± 2.6
Status Epilepticus (time in status epilepticus) ([2]; Mean ± SE of (5) rats, i.p., vehicle —, listed as ibuprofen): increased the time in status epilepticus
Onset ([2]; Mean ± SE, i.p., vehicle 13.2 ± 2.1): 13.0 ± 1.7 min
No. of Seizures ([2]; Mean ± SE, i.p., vehicle 16.6 ± 1.0): 11.7 ± 1.0
Time in Seizures ([2]; Mean ± SE, i.p., vehicle 21.1 ± 1.1): 10.8 ± 0.6 min
Onset ([2]; individual rats, i.p. 60 min. before intrahippocampal 40 μg in 0.5 μl kainic acid): 14.4 min and 7.9 min and 11.0 min and 12.3 min and 13.3 min and 21.4 min and 10.0 min
No. of Seizures [2, 7]: 13 (2×) and 10 (2×) and 12 and 16 and 8
Time in Seizures [2, 7]: 13.0 min and 8.4 min and 11.0 min and 12.5 min and 11.2 min and 9.8 min and 9.4 min
Status Epilepticus (time in status epilepticus) ([2]; individual rats, i.p., continuous seizure activity lasting more than 30 min., all vehicle rats —): 75 and 66.6 and 80 (2×) and 70
seizure activity compared to vehicle ([2]; intraperitoneal route): increased the seizure activity compared to vehicle

CCO[C@@H]1OC(=O)C[C@@H]1NC(=O)[C@@H]1CCCN2C(=O)CC[C@H](NC(=O)c3nccc4ccccc34)C(=O)N12 [Compound 1]
mature active 17 kD IL-1β in hippocampus [3]: blocked the seizure-induced production; also recorded: reduced the formation mature active 17 kD IL-1β
Time in ictal activity ([4]; 45 and 10 min before 40 ng kainic acid): 36.0 min (2×) and 30.0 min and 42.0 min (2×) and 34.0 min and 41.0 min
ONSET (time to onset of the first ictal episode) ([4]; 45 and 10 min before 40 ng kainic acid in left hippocampus): 15.0 min and 20.0 min and 14.0 min (2×) and 18.0 min and 13.6 min and 9.0 min and 12.0 min
No. of ictal episodes ([4]; 45 and 10 min before 40 ng kainic acid, 3 hours of recording): 28 and 29 and 30 (3×) and 37 and 31 and 33
reduction of the total time spent in ictal activity ([5]; 30 mg/kg intraperitoneally, vs vehicle, did not reach statistical significance): −30%
No. of ictal episodes ([5]; Mean ± SE, 30 mg/kg intraperitoneally, vehicle 20.8 ± 2.5): 20.5 ± 2.3
Time in ictal activity ([5]; Mean ± SE, 30 mg/kg intraperitoneally, vehicle 36.6 ± 6.9): 25.6 ± 2.8 min
ONSET (time to onset of the first ictal episode) [5, 8]: 10.5 min and 12 min and 14 min and 9 min (2×) and 23 min and 13 min and 11 min
Time in ictal activity [5, 8]: 9 min and 32 min and 27 min and 20 min and 34 min and 25 min and 30 min and 28 min
No. of ictal episodes ([5]; individual rats, 30 mg/kg intraperitoneally, 45 and 10 min before 40 ng kainic acid, 3 hours of recording, 30 mg/kg): 8 and 23 (2×) and 29 and 17 and 25 (2×) and 16
seizure inhibition / anti-convulsant activity ([5]; intraperitoneal (peripheral) route): inhibit seizures; also recorded: have anti-convulsant activity when administered peripherally
anti-convulsant activity in the rodent seizure model [1]: as effective as high doses of either phenytoin or carbamazepine
anti-inflammatory activity in rheumatoid arthritis patients [6]: anti-inflammatory activity

NC(=O)N1c2ccccc2C=Cc2ccccc21 [carbamazepine]
anti-convulsant activity in the rodent seizure model [1]: exhibit anti-convulsant activity
